Data on 1 compound can be found in patent US20210109080A1, “Cell-Based Biosensor for Early Alzheimer's Disease Detection” (University of South Carolina, priority 2019, published 2021).

Where a SMILES comes first, the peptide text is derived from it. The star is where a group is joined. Cbz = O=C(OCc1ccccc1)*

The test system of this assay is HBMVEC monolayers. Nature of the assay: FITC-BSA transendothelial transfer / permeability coefficient (Pe) across HBMVEC monolayers. Type of assay: cell-based, human. Particulars: 3 μM MG-132 pre-treatment 30 min, then 5 μM MIX 24 h. How it is done:
HBMVEC monolayers were incubated alone (white circles), with 0.3-10 μM Aß aggregates (grey circles), or with TNF-α (positive control, black circles). (a) Following 24-h treatment, transfer of FITC-BSA from the apical to basolateral chamber was monitored via florescence. Error bars represent SEM, n=3. Increased permeability is evidenced by a faster transfer rate, or steeper slope. Following treatment with 5 μM Aß aggregates, the transfer rate is increased by approximately 10%. (b) TEER was monitored following addition of treatments (indicated by arrow). […] In the absence of Aß aggregates, TEER maintains a plateau, decreasing by less than 8% over 7 days.
HBMVEC monolayers were incubated alone (CONT, white circles), with Aß monomer (MON, diamonds), with Aß aggregate mixture containing small aggregates (MIX, circles), or with Aß fibrils (FIB, triangles). (a) Using FITC-BSA transfer rates, Pe was determined after 24-h treatment with Aß concentrations of 5 μM (white bars) and 10 μM (black bars). […] (b) TEER was monitored following addition of treatments at a concentration of 5 μM (indicated by arrow).
Pe is determined from the transfer rate of FITC-BSA and reported relative to untreated monolayers. […]
(a) Confluent HBMVEC monolayers were incubated for 30 min with 100 pM, 1 nM, 10 nM, or 1 μM isolated small soluble Aß aggregates (SOL) (RH=43-54 nm). […] Using FITC-BSA transfer rates, Pe was determined.

For `CC(C)C[C@@H](C=O)NC(=O)[C@H](CC(C)C)NC(=O)[C@H](CC(C)C)NC(=O)OCc1ccccc1` [MG-132] (Cbz-Leu-Leu-Leu-aldehyde), the “effect on Aß-induced increase in Pe” value is listed as “Abrogation of the Aß-induced increase in Pe”.
